From PubChem BioAssay (NCI)
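Each compound was tested at five concentrations against cells in 96-well plates for 48 hours. TGI denotes the concentration required for complete inhibition of growth.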

How the values were obtained:
Experiment in all cases: DTP human tumour cell line panel, 48 h
[1] = system: CAKI-1 renal
[2] = system: HCT-116 colon
[3] = system: HCT-15 colon
[4] = system: HS 578T breast
[5] = system: HT29 colon
[6] = system: MCF7 breast
[7] = system: MDA-MB-231 breast
[8] = system: MOLT-4 leukemia
[9] = system: OVCAR-5 ovarian
[10] = system: OVCAR-8 ovarian
[11] = system: PC-3 prostate
[12] = system: RPMI-8226 leukemia
[13] = system: RXF 393 renal
[14] = system: SK-MEL-28 melanoma
[15] = system: SK-OV-3 ovarian
[16] = system: SN12C renal
[17] = system: SNB-19 CNS
[18] = system: SNB-75 CNS
[19] = system: T-47D breast
[20] = system: UACC-257 melanoma

Row | SMILES | TGI [1] | TGI [2] | TGI [3] | TGI [4] | TGI [5] | TGI [6] | TGI [7] | TGI [8] | TGI [9] | TGI [10] | TGI [11] | TGI [12] | TGI [13] | TGI [14] | TGI [15] | TGI [16] | TGI [17] | TGI [18] | TGI [19] | TGI [20]
1 | NS(=O)(=O)c1ccc(NC(=S)NC(=O)Nc2ccc(Cl)c(Cl)c2)cc1 | 40.1 µM | 27.7 µM | 29.8 µM | 59.3 µM | 31.3 µM | 30.2 µM | 33.5 µM | 49.6 µM | 27.9 µM | 41.2 µM | 30 µM | > 85.3 µM | 35.4 µM | 43.5 µM | 38.9 µM | 31 µM | 24.5 µM | 28.8 µM | 33.3 µM | 41.4 µM
2 | CC(=O)c1ccc(Br)cc1NC1=CC(=O)c2ncccc2C1=O | 22.3 µM | 4.5 µM | 10.3 µM | 35.6 µM | 12.3 µM | 11.6 µM | 10.8 µM | 9.6 µM | 33.8 µM | 18.2 µM | 13.5 µM | 8.95 µM | 18.7 µM | 20.7 µM | 29.1 µM | 19.1 µM | 11.3 µM | 5.58 µM | 9.37 µM | 4.94 µM
3 | CC(C)=CCC[C@@H](C)[C@H]1CC[C@@]2(C)[C@@H]3CC[C@H]4C(C)(C)[C@@H](O)CC[C@@]45C[C@@]35CC[C@]12C | > 100 µM | > 77.9 µM | > 100 µM | > 100 µM | > 100 µM | > 100 µM | > 64.6 µM | > 87.2 µM | > 100 µM | 42.6 µM | > 100 µM | > 88.7 µM | 45.1 µM | > 100 µM | > 100 µM | 41.8 µM | > 100 µM | > 100 µM | > 100 µM | > 100 µM
4 | Cc1ccc(-c2n[nH]c(=O)n2/N=C\c2ccccc2O)cc1 | > 100 µM | > 100 µM | > 100 µM | > 100 µM | > 100 µM | > 100 µM | > 100 µM | > 100 µM | > 100 µM | > 100 µM | > 100 µM | > 100 µM | > 100 µM | > 100 µM | > 100 µM | > 100 µM | > 100 µM | > 100 µM | > 100 µM | > 100 µM
